# BigSolDB 2.1
"solubility (mole fraction) (in acetone, 296 K)","solubility (mole fraction) (in acetone, 310 K)","solubility (mole fraction) (in acetonitrile, 296 K)","solubility (mole fraction) (in acetonitrile, 310 K)","solubility (mole fraction) (in ethanol, 296 K)","solubility (mole fraction) (in ethanol, 310 K)","solubility (mole fraction) (in isopropanol, 296 K)","solubility (mole fraction) (in isopropanol, 310 K)","solubility (mole fraction) (in methanol, 296 K)","solubility (mole fraction) (in methanol, 310 K)","solubility (mole fraction) (in n-propanol, 296 K)","solubility (mole fraction) (in n-propanol, 310 K)","solubility (mole fraction) (in THF, 296 K)","solubility (mole fraction) (in THF, 310 K)",Structure (SMILES)
0.0128,0.0181,0.0021,0.0027,0.0111,0.0127,0.0133,0.0145,0.00544,0.00648,0.0242,0.0279,–,–,CC(=O)O[C@H]1CC[C@@]2(C)C(=CC[C@@H]3[C@@H]2CC[C@]2(C)C(c4cccnc4)=CC[C@@H]32)C1
–,–,4.44e-05,6.46e-05,0.00102,0.00126,0.00168,0.0015,0.000523,0.000656,0.00178,0.00256,0.00249,0.00393,C[C@]12CC[C@H](O)CC1=CC[C@@H]1[C@@H]2CC[C@]2(C)C(c3cccnc3)=CC[C@@H]12
